# Legend:
# PDE2A [1] = test: In vitro autoradiography on pig brain cryosections, blocking studies; type: binding; settings: 10 µM blocker
# Description: To verify these findings, blocking studies with 10 µM of TA1 (a potent PDE2 ligand)
# Pig brain cryosections (16 µm; Microm HM560 Cryostat, FischerScientific GmbH, Schwerte, Germany) were thawed, dried in a stream of cold air, and preincubated for 10 min with buffer (50 mM TRIS-HCl, pH 7.4, 120 mM NaCl, 5 mM KCl, 2 mM MgCl2) at room temperature. […] The sections were then washed twice with ice-cold 50 mM TRIS-HCl (pH 7.4), dipped in ice-cold deionized water, dried in a stream of cold air, and exposed for 60 min to an image plate. The analysis was performed using an image plate scanner (HD-CR 35; Duerr NDT GmbH, Bietigheim Bissingen, Germany).
# [2] = In vitro stability of the radioligand; type: physicochemical; settings: PBS, pig plasma, n-octanol and saline formulation containing 10% ethanol; 40 °C, up to 1 h
# Description: (§1) The lipophilicity was determined by the shake-flask method in the n-octanol/PBS system. […] Moreover, the big discrepancy between the experimental and the calculated logD7.4 value was already observed for our PDE2 tracer [^18F]TA5 and has been previously discussed. It is assumed that the experimentally determined higher hydrophilicity of [^18F]TA5 might be due to the solvation effect related to hydrogen bonding and ionization of the radioligand in the aqueous buffered system. Whereas with the software-based determination, this effect may be underestimated. Therefore, the calculated logD value is often higher than the experimentally determined value.
# Samples were taken at 30 and 60 min and analyzed by radio-TLC and radio-HPLC.
# [3] = Lipophilicity by shake-flask method (n-octanol/PBS); type: physicochemical; settings: n-octanol/PBS pH 7.4, ambient temperature, read-out: logD7.4
# Description: as §1
# The tubes were shaken for 20 min using a mechanical shaker (HS250 basic, IKA Labortechnik GmbH & Co. KG, Staufen, Germany) followed by centrifugation (5000 rpm for 5 min) and separation of the phases. Aliquots of 1 mL of the organic and the aqueous phase were taken, and the activity was measured using an automated gamma counter (1480 WIZARD, Fa. Perkin Elmer, Waltham, MA, USA). The distribution coefficient (D) was calculated as [activity (cpm/mL) in n-octanol]/[(activity (cpm/mL) in PBS], specified as the decadic logarithm (logD).
# [4] = In vivo metabolism of the radioligand in mice; parameters: species or system mouse; settings: i.v., 30 min p.i., radio-HPLC
# Description: Prior to the analysis with RP-HPLC, the samples were treated with a mixture of MeCN/H2O (4:1, v/v) to precipitate the proteins. The recovery of radioactivity in plasma and brain samples was 96% and 99%, respectively. […] As shown in the chromatograms (Figure 5), the two radio-metabolites ([^18F]M1 and [^18F]M2) found in the brain were also observed in the corresponding plasma sample, indicating their ability to penetrate the blood-brain barrier. […] On the basis of the in vitro metabolites M1 and M2, both elucidated by LC-MS in the mentioned study, we can conclude about the brain penetrating radio-metabolites [^18F]M1 and [^18F]M2 as products of N-oxidation or C-hydroxylation. Besides, some of the more polar radio-metabolites detected in plasma could only tentatively be assigned as formed by mono-oxygenation, di-oxygenation, reduction, and demethylation, but were not investigated further. […]
# Protein precipitation of plasma and brain samples was performed in duplicate with ice-cold MeCN/H2O (8:2, v/v), which was added to the samples (sample/solvent, 1:4, v/v). […] The combined supernatants were concentrated at 70 °C under nitrogen stream until a remaining volume of 100 µL and subsequently quantified by analytical radio-HPLC with an isocratic system (42% MeCN/20 mM NH4OAcaq.; flow rate: 1.0 mL/min). […]
# PDE2A [5] = molecular target: T1, PDE2A (Mus musculus, UniProt Q922S4); test: Dynamic PET-MRI studies in CD-1 mice; type: in vivo; settings: female CD-1 mice, i.v., 5 min p.i.; whole brain, striatum and cerebellum
# T1 construct: from tissue; host or cells: brain of living female CD-1 mice (in vivo PET)
# T1 sequence (Q922S4 1-939): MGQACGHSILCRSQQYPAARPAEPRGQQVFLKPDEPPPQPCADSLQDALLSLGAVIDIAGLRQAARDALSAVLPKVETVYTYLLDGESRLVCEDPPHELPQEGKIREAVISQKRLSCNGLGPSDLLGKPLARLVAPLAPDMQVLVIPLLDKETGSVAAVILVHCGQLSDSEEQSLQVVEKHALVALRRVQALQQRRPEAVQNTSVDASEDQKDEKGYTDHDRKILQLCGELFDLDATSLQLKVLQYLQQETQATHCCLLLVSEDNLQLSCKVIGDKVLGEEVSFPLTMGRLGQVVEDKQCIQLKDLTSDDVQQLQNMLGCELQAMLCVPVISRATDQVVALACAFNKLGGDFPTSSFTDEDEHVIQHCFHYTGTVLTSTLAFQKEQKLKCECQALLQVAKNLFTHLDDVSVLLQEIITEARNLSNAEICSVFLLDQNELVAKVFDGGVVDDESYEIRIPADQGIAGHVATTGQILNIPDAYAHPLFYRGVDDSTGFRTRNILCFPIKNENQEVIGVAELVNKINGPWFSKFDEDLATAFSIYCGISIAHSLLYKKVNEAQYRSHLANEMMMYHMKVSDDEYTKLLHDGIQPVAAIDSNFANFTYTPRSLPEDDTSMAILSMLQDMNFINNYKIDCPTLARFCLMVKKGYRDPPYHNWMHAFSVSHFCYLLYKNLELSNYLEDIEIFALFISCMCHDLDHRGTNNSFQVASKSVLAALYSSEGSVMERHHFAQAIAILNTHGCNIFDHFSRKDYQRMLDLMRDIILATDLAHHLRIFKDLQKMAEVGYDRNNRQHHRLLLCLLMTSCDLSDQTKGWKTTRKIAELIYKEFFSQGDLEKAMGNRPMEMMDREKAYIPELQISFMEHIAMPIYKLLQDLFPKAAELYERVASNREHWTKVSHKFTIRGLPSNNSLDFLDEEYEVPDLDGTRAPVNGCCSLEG
# Description: As reflected by the time-activity curves (TACs) shown in Figure 6, the radioactivity uptake in the whole brain, striatum, and cerebellum reached standardized uptake values (SUVs) of about 0.7 at 5 min p.i., indicating blood-brain barrier penetration.
# PET/MRI scans were performed using a preclinical PET/MRI system (nanoScan, Mediso Medical Imaging Systems, Budapest, Hungary). Animals were anesthetized with a mixture of air/isoflurane (2.0%, 200 mL/min) (Anesthesia Unit U-410, agntho’s, Lidingö, Sweden), and their body temperature maintained at 37 °C with a thermal bed system. […] A dynamic 60-min PET scan was started 20 sec before radioligand injection. The list-mode data were reconstructed into 33 frames (12 × 10 sec, 6 × 30 sec, 5 × 1 min, 10 × 5 min) with 3D-ordered subset expectation maximization, 4 iterations, and 6 subsets, using an energy window of 400 to 600 KeV and coincidence mode of 1–5. After the PET scan, an MRI scan was performed for anatomical orientation and attenuation correction on a 1T magnet using a T1-weighted gradient-echo sequence (TR = 15 ms, TE = 2.6 ms). The data analysis was done with PMOD (PMOD Technologies Ltd., Zurich, Switzerland, v. 3.6), and an atlas-based method was used to obtain SUV time-activity curves for the striatum, cerebellum, and the whole brain.
# hPDE2A = settings: cited from earlier work
# hPDE10A = tested on: hPDE10A; parameters: method as in PMID 24189054, PMID 23651455; settings: cited from earlier work
# PDE2A [6] = settings: cited from earlier work
# PDE10A = settings: cited from earlier work
compound,measurement,setting,value
"COc1ccc(Cl)c(-c2nc(C)c3nnc4ccc(-c5ccnc(F)c5)cc4n23)c1 [BIT1, 1-(2-chloro-5-methoxyphenyl)-8-(2-fluoropyridin-4-yl)-3-methylbenzo[e]imidazo[5,1-c][1,2,4]triazine]",decrease of [18F]BIT1 binding in caudate nucleus (Cd),PDE2A [1]; 1.72 nM [18F]BIT1,~ 50%
same,decrease of [18F]BIT1 binding in nucleus accumbens (Acb),PDE2A [1]; 1.72 nM [18F]BIT1,~ 30%
same,decrease of [18F]BIT1 binding in cerebellum (Cb),"PDE2A [1]; 1.72 nM [18F]BIT1, non-PDE2A region",20–30%
COc1ccc(Cl)c(-c2nc(C)c3nnc4ccc(-c5ccnc([18F])c5)cc4n23)c1 [[^18F]BIT1],in vitro stability (radiochemical purity after incubation),[2],≥ 99%
same,logD,[3],1.81 ± 0.05
same,"intact tracer, fraction of total activity in brain",[4]; brain homogenate,78%
same,"intact tracer, fraction of total activity in plasma",[4],43%
same,standardized uptake value (SUV) in brain,PDE2A [5],~ 0.7
Cc1nc(-c2cnn(C)c2-c2ccc(C(F)(F)F)cc2)c2c(N3CC([18F])C3)ncnn12 [[^18F]PF-05270430],IC50,hPDE2A,0.0005 µM
same,IC50,hPDE10A,> 3 µM
COc1ccc2nnc3c(C)nc(-c4cc(OCCC[18F])ccc4F)n3c2n1 [[^18F]TA3],IC50,PDE2A [6],0.0114 µM
same,IC50,PDE10A,0.318 µM
COc1ccc2nnc3c(C)nc(-c4cc(OCCCC[18F])ccc4F)n3c2n1 [[^18F]TA4],IC50,PDE2A [6],0.0073 µM
same,IC50,PDE10A,0.913 µM
CCCCOc1ccc(F)c(-c2nc(C)c3nnc4ccc(OCC[18F])nc4n23)c1 [[^18F]TA5],IC50,PDE10A,> 1 µM

# Reference: PMC6891464, “Radiosynthesis and Biological Investigation of a Novel Fluorine-18 Labeled Benzoimidazotriazine-Based Radioligand for the Imaging of Phosphodiesterase 2A with Positron Emission Tomography” (Molecules, 2019)
